According to publication PMC7912614, “(2-Aminobenzothiazole)-Methyl-1,1-Bisphosphonic Acids: Targeting Matrix Metalloproteinase 13 Inhibition to the Bone” (Pharmaceuticals, 2021):
Where two headings read alike, the source gives them in different places.

Tests used:
MMP-8 = target: T1, MMP-8 (Homo sapiens, UniProt P22894); experiment: fluorometric MMP inhibition assay, MMP-8 catalytic domain; type: biochemical; details: for Ligand Efficiency MMP-8: calculated from IC50 values of Table 2; for IC50: catalytic domain, fluorometric assay, mean ± SEM of at least 3 experiments
T1 construct: Catalytic domains of MMP-2, -8, -9, and -13 were obtained from Enzo Life Sciences; purchased Enzo Life Sciences
Procedure: (§1) Catalytic domains of MMP-2, -8, -9, and -13 were obtained from Enzo Life Sciences. 96-well white microtiter plates (Corning, NBS) were used to carry out the assays (in triplicate). The assay measurements were performed by preparing dilutions to six different concentrations (1 nM–100 µM) of each inhibitor in a fluorometric assay buffer (50 mM Tris·HCl pH 7.5, 200 mM NaCl, 1 mM CaCl2, 1 µM ZnCl2, 0.05% Brij-35, and 1% DMSO). Incubation of the enzyme and inhibitor solutions occurred for 15 min at room temperature; fluorogenic substrate solution (OmniMMP® = Mca-Pro-Leu-Gly-Leu-Dpa-Ala-Arg-NH2, Enzo Life Sciences, 2.5 µM final concentration or OmniMMP®RED = TQ3-GABA-Pro-Cha-Abu-Smc-His-Ala-Dab (6′-TAMRA)-Ala-Lys-NH2, Enzo Life Sciences, and 1 µM final concentration) was subsequently added. The assay was incubated for 2–4 h at 37 °C, after which a Perkin–Elmer Victor V3 plate reader was used to measure fluorescence (λex= 340 nm, λem = 405 nm or λex = 545 nm, λem = 572 nm). Included in the assay were control wells lacking any inhibitor. MMP activity was thus determined and expressed in relative fluorescence units (RFU). Percent inhibition was calculated from control wells and IC50 values were determined using GraphPad Prism 5.0 and are shown as mean ± SEM of at least three independent measurements, which were performed in triplicate.

MMP-13 = target: T2, MMP-13 (Homo sapiens, UniProt P45452); experiment: fluorometric MMP inhibition assay, MMP-13 catalytic domain; type: biochemical; details: for Ligand Efficiency MMP-13: calculated from IC50 values of Table 2; for IC50: catalytic domain, fluorometric assay, mean ± SEM of at least 3 experiments; for Selectivity MMP-2/13 / Selectivity MMP-8/13 / Selectivity MMP-9/13: ratio of IC50 values of Table 2
T2 construct: Catalytic domains of MMP-2, -8, -9, and -13 were obtained from Enzo Life Sciences; purchased Enzo Life Sciences
Procedure: as §1

MMP-2 = target: T3, MMP-2 (Homo sapiens, UniProt P08253); experiment: fluorometric MMP inhibition assay, MMP-2 catalytic domain; type: biochemical; details: for Ligand Efficiency MMP-2: calculated from IC50 values of Table 2; for IC50: catalytic domain, fluorometric assay, mean ± SEM of at least 3 experiments
T3 construct: Catalytic domains of MMP-2, -8, -9, and -13 were obtained from Enzo Life Sciences; purchased Enzo Life Sciences
Procedure: as §1

MMP-9 [1] = target: T4, MMP-9 (Homo sapiens, UniProt P14780); experiment: fluorometric MMP inhibition assay, MMP-9 catalytic domain; type: biochemical; details: for Ligand Efficiency MMP-9: calculated from IC50 values of Table 2; for IC50: catalytic domain, fluorometric assay, mean ± SEM of at least 3 experiments
T4 construct: Catalytic domains of MMP-2, -8, -9, and -13 were obtained from Enzo Life Sciences; purchased Enzo Life Sciences
Procedure: as §1

MMP-9 [2] = target: T4, MMP-9; parameters: method as in PMID 21714093; details: inhibition values from literature; cited from earlier work

T1 sequence (P22894 100-262 limits assumed): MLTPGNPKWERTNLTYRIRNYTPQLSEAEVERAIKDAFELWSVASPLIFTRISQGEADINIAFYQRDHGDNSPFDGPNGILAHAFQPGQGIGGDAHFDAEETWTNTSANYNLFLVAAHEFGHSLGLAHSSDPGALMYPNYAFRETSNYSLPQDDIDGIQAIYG
T4 sequence (P14780 107-444 limits assumed): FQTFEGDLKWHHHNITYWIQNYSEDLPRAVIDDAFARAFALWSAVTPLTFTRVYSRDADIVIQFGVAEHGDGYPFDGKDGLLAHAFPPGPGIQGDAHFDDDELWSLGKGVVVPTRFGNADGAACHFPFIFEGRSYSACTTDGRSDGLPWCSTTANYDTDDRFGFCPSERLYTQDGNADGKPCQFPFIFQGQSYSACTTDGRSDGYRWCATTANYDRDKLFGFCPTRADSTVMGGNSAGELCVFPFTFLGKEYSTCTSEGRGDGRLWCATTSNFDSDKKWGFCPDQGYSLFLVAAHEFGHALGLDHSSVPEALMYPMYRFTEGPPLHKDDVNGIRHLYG
T3 sequence (P08253 110-446 limits assumed): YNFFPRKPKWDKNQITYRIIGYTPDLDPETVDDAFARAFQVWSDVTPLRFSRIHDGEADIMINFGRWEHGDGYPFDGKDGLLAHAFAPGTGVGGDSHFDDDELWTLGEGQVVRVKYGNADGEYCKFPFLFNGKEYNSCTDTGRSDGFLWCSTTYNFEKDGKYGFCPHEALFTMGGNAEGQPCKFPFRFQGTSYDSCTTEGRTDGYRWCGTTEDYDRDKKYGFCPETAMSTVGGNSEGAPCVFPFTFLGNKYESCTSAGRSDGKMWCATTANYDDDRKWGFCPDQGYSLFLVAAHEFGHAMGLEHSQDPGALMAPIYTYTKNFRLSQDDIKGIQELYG

Compound | Ligand Efficiency MMP-8 (MMP-8) | IC50 (MMP-8) | Ligand Efficiency MMP-13 (MMP-13) | IC50 (MMP-13) | Selectivity MMP-2/13 (MMP-13) | Selectivity MMP-8/13 (MMP-13) | Selectivity MMP-9/13 (MMP-13) | Ligand Efficiency MMP-2 (MMP-2) | IC50 (MMP-2) | melting point | Ligand Efficiency MMP-9 (MMP-9 [1]) | IC50 (MMP-9 [1]) | IC50 (MMP-9 [2])
O=C1c2ccccc2C(=O)N1c1ccc2nc(NC(P(=O)(O)O)P(=O)(O)O)sc2c1 [Compound 10, (6-(1,3-dioxoisoindolin-2-yl)benzo[d]thiazol-2-amino)methyl-1,1-bisphosphonic acid] | 0.23 | 12 ± 0.4 µM | 0.23 | 10.9 ± 2.4 µM | 0.16 | 1.10 | 0.50 | 0.26 | 1.69 ± 0.08 µM | > 250 °C | 0.24 | 5.4 ± 1.6 µM | –
O=P(O)(O)C(NS(=O)(=O)c1ccc(-c2ccccc2)cc1)P(=O)(O)O [ML115, reference compound] | 0.35 | – | 0.34 | 0.6 ± 0.3 µM | 0.23 | 0.67 | >166.67 | 0.38 | – | – | – | – | > 100 µM
O=C(Cc1ccccc1)Nc1ccc2nc(NC(P(=O)(O)O)P(=O)(O)O)sc2c1 [Compound 8, (6-(2-phenylacetamido)benzo[d]thiazol-2-amino)methyl-1,1-bisphosphonic acid] | 0.23 | 10.8 ± 3.1 µM | 0.24 | 9.3 ± 0.7 µM | 0.26 | 1.16 | 2.37 | 0.27 | 2.4 ± 0.5 µM | > 250 °C | 0.22 | 22 ± 8 µM | –
